Test results as given in ChEMBL document CHEMBL1201862, “PubChem BioAssay data set” (2004).
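Five compound concentrations were applied to cells in 96-well plates for 48 hours; endpoints were derived by simple linear interpolation of the resulting dose-response curve. Here, GI50 denotes the concentration required for 50% inhibition of growth.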 Activity calls are given as the source filed them. No stated cut-off is given here; in the data, active = GI50 up to about 1.1 µM and inactive = higher.

Legend:
Assay in all cases: inhibition of tumour cell growth, NCI panel, 48 h
[1] = tested on: KM12
[2] = tested on: UACC-257
[3] = tested on: OVCAR-8
[4] = tested on: OVCAR-4
[5] = tested on: TK-10
[6] = tested on: COLO 205
[7] = tested on: SK-MEL-2
[8] = tested on: SF-539
[9] = tested on: SNB-19
[10] = tested on: BT-549
[11] = tested on: HL-60
[12] = tested on: IGROV-1
[13] = tested on: UO-31
[14] = tested on: NCI/ADR-RES
[15] = tested on: SK-MEL-5
[16] = tested on: NCI-H522
[17] = tested on: NCI-H460
[18] = tested on: SK-MEL-28
[19] = tested on: MCF7
[20] = tested on: HT-29
[21] = tested on: SN12C
[22] = tested on: MDA-MB-231
[23] = tested on: PC-3
[24] = tested on: UACC-62
[25] = tested on: HOP-92
[26] = tested on: A549
[27] = tested on: SF-295
[28] = tested on: SW-620
[29] = tested on: EKVX
[30] = tested on: Malme-3M
[31] = tested on: SK-OV-3
[32] = tested on: HCT-116
[33] = tested on: MDA-MB-435
[34] = tested on: T47D
[35] = tested on: RPMI-8226
[36] = tested on: OVCAR-3
[37] = tested on: K562
[38] = tested on: SNB-75
[39] = tested on: SR
[40] = tested on: M14
[41] = tested on: U-251
[42] = tested on: MOLT-4
[43] = tested on: Hs-578T
[44] = tested on: HCT-15
[45] = tested on: 786-0
[46] = tested on: LOX IMVI
[47] = tested on: CAKI-1
[48] = tested on: NCI-H226
[49] = tested on: CCRF-CEM
[50] = tested on: ACHN
[51] = tested on: NCI-H23
[52] = tested on: RXF 393
[53] = tested on: DU-145
[54] = tested on: OVCAR-5
[55] = tested on: HOP-62
[56] = tested on: A498
[57] = tested on: HCC 2998
[58] = tested on: SF-268

Q: How did the GI50 [1] turn out when Cc1cn2c(/C=N/NC(=N)N)c(-c3cc([N+](=O)[O-])c(Cl)cc3Cl)nc2s1 was run?
A: 0.455 µM (active)

Q: And the GI50 [2]?
A: 2.24 µM (inactive)

Q: And the GI50 [3]?
A: 2.63 µM (inactive)

Q: And the GI50 [4]?
A: 1.91 µM (inactive)

Q: And the GI50 [5]?
A: 2.3 µM (inactive)

Q: And the GI50 [6]?
A: 0.55 µM (active)

Q: And the GI50 [7]?
A: 2.35 µM (inactive)

Q: And the GI50 [8]?
A: 2.52 µM (inactive)

Q: What about the GI50 [9] of the same compound?
A: 1.87 µM (inactive)

Q: And the GI50 [10]?
A: 2.51 µM (inactive)

Q: And the GI50 [11]?
A: 1.61 µM (inactive)

Q: What about the GI50 [12] of the same compound?
A: 1.8 µM (inactive)

Q: And the GI50 [13]?
A: 1.83 µM (inactive)

Q: And the GI50 [14]?
A: > 100 µM (inactive)

Q: And the GI50 [15]?
A: 2.77 µM (inactive)

Q: And the GI50 [16]?
A: 1.47 µM (inactive)

Q: And the GI50 [17]?
A: 2.29 µM (inactive)

Q: And the GI50 [18]?
A: 2.22 µM (inactive)

Q: What about the GI50 [19] of the same compound?
A: 0.49 µM (active)

Q: And the GI50 [20]?
A: 1.13 µM (inactive)

Q: And the GI50 [21]?
A: 2.24 µM (inactive)

Q: What about the GI50 [22] of the same compound?
A: 2.4 µM (inactive)

Q: And the GI50 [23]?
A: 2.34 µM (inactive)

Q: What about the GI50 [24] of the same compound?
A: 1.98 µM (inactive)

Q: What about the GI50 [25] of the same compound?
A: 3.32 µM (inactive)

Q: What about the GI50 [26] of the same compound?
A: 4.06 µM (inactive)

Q: And the GI50 [27]?
A: 2.08 µM (inactive)

Q: With COc1ccc(CNc2nc(NCc3ccc(OC)c(OC)c3)nc(NC3CCCCC3)n2)cc1 as the compound, how does the GI50 [28] read?
A: 2.89 µM (inactive)

Q: What about the GI50 [29] of the same compound?
A: 10.4 µM (inactive)

Q: What about the GI50 [1] of the same compound?
A: 1.21 µM (inactive)

Q: What about the GI50 [30] of the same compound?
A: 37.2 µM (inactive)

Q: And the GI50 [31]?
A: > 100 µM (inactive)

Q: And the GI50 [2]?
A: > 100 µM (inactive)

Q: What about the GI50 [32] of the same compound?
A: 2.69 µM (inactive)

Q: And the GI50 [3]?
A: 7.41 µM (inactive)

Q: And the GI50 [33]?
A: 0.531 µM (active)

Q: And the GI50 [4]?
A: 9.06 µM (inactive)

Q: And the GI50 [34]?
A: 4.48 µM (inactive)

Q: What about the GI50 [35] of the same compound?
A: 3.6 µM (inactive)

Q: And the GI50 [5]?
A: 18.5 µM (inactive)

Q: What about the GI50 [6] of the same compound?
A: 2.34 µM (inactive)

Q: And the GI50 [7]?
A: 4.26 µM (inactive)

Q: And the GI50 [8]?
A: 2.29 µM (inactive)

Q: What about the GI50 [9] of the same compound?
A: > 100 µM (inactive)

Q: What about the GI50 [36] of the same compound?
A: 5.38 µM (inactive)

Q: And the GI50 [10]?
A: 4.57 µM (inactive)

Q: What about the GI50 [11] of the same compound?
A: 2.77 µM (inactive)

Q: And the GI50 [37]?
A: 1.24 µM (inactive)

Q: What about the GI50 [38] of the same compound?
A: 3.38 µM (inactive)

Q: And the GI50 [39]?
A: 0.611 µM (active)

Q: What about the GI50 [12] of the same compound?
A: 4.49 µM (inactive)

Q: What about the GI50 [13] of the same compound?
A: 5.18 µM (inactive)

Q: What about the GI50 [14] of the same compound?
A: 2.55 µM (inactive)

Q: And the GI50 [40]?
A: 4.61 µM (inactive)

Q: And the GI50 [41]?
A: 3.44 µM (inactive)

Q: And the GI50 [15]?
A: 0.716 µM (active)

Q: And the GI50 [16]?
A: 1.69 µM (inactive)

Q: What about the GI50 [17] of the same compound?
A: 2.8 µM (inactive)

Q: And the GI50 [18]?
A: > 100 µM (inactive)

Q: And the GI50 [42]?
A: 5.22 µM (inactive)

Q: And the GI50 [43]?
A: 2.49 µM (inactive)

Q: And the GI50 [44]?
A: 0.731 µM

Q: What about the GI50 [19] of the same compound?
A: 1.29 µM (inactive)

Q: And the GI50 [20]?
A: 2.88 µM (inactive)

Q: What about the GI50 [45] of the same compound?
A: 5.64 µM (inactive)

Q: What about the GI50 [21] of the same compound?
A: 6.18 µM (inactive)

Q: What about the GI50 [46] of the same compound?
A: 5.33 µM (inactive)

Q: What about the GI50 [22] of the same compound?
A: 5.13 µM (inactive)

Q: What about the GI50 [47] of the same compound?
A: 3.17 µM (inactive)

Q: What about the GI50 [48] of the same compound?
A: 6.55 µM (inactive)

Q: And the GI50 [23]?
A: 3.77 µM (inactive)

Q: What about the GI50 [24] of the same compound?
A: 2.3 µM (inactive)

Q: What about the GI50 [49] of the same compound?
A: 3.66 µM (inactive)

Q: What about the GI50 [50] of the same compound?
A: 7.94 µM (inactive)

Q: And the GI50 [25]?
A: > 100 µM (inactive)

Q: What about the GI50 [51] of the same compound?
A: 2.86 µM (inactive)

Q: And the GI50 [26]?
A: 5.46 µM (inactive)

Q: What about the GI50 [52] of the same compound?
A: 2.23 µM (inactive)

Q: And the GI50 [27]?
A: 2.04 µM (inactive)

Q: And the GI50 [53]?
A: 3.4 µM (inactive)

Q: And the GI50 [54]?
A: 4.88 µM (inactive)

Q: What does the source list for O=C(O)c1cc(CC2Cc3cc4c(cc3C2=O)CCC4)cc2c1CCC2 (stereo unspecified)?
A: GI50 [28]: > 100 µM (inactive); GI50 [29]: > 100 µM (inactive); GI50 [1]: 75.2 µM (inactive); GI50 [30]: > 100 µM (inactive); GI50 [31]: > 100 µM (inactive); GI50 [2]: > 100 µM (inactive); GI50 [32]: 72.1 µM (inactive); GI50 [3]: > 100 µM (inactive); GI50 [33]: > 100 µM (inactive); GI50 [4]: > 100 µM (inactive); GI50 [34]: > 100 µM (inactive); GI50 [35]: 70.8 µM (inactive); GI50 [5]: > 100 µM (inactive); GI50 [6]: > 100 µM (inactive); GI50 [7]: > 100 µM (inactive); GI50 [8]: > 100 µM (inactive); GI50 [55]: > 100 µM (inactive); GI50 [56]: > 100 µM (inactive); GI50 [9]: > 100 µM (inactive); GI50 [57]: > 100 µM (inactive); GI50 [36]: 94.4 µM (inactive); GI50 [10]: > 100 µM (inactive); GI50 [11]: > 100 µM (inactive); GI50 [37]: 40.9 µM (inactive); GI50 [38]: 35.6 µM (inactive); GI50 [39]: 67.1 µM (inactive); GI50 [12]: > 100 µM (inactive); GI50 [13]: > 100 µM (inactive); GI50 [14]: > 100 µM (inactive); GI50 [40]: > 100 µM (inactive); GI50 [41]: 82.2 µM (inactive); GI50 [58]: > 100 µM (inactive); GI50 [16]: 90.2 µM (inactive); GI50 [17]: > 100 µM (inactive); GI50 [18]: > 100 µM (inactive); GI50 [42]: > 100 µM (inactive); GI50 [43]: 48.1 µM (inactive); GI50 [44]: 60.7 µM; GI50 [19]: > 100 µM (inactive); GI50 [20]: > 100 µM (inactive); GI50 [45]: > 100 µM (inactive); GI50 [21]: > 100 µM (inactive); GI50 [46]: 84.1 µM (inactive); GI50 [22]: 76.4 µM (inactive); GI50 [47]: > 100 µM (inactive); GI50 [48]: > 100 µM (inactive); GI50 [23]: 46.6 µM (inactive); GI50 [24]: 43.2 µM (inactive); GI50 [49]: 59.3 µM (inactive); GI50 [50]: 61 µM (inactive); GI50 [51]: > 100 µM (inactive); GI50 [26]: > 100 µM (inactive); GI50 [27]: > 100 µM (inactive); GI50 [53]: > 100 µM (inactive); GI50 [54]: > 100 µM (inactive)
